Measurements reported in US11066365B2, “1-cyano-pyrrolidine compounds as USP30 inhibitors” (Mission Therapeutics Limited, priority 2015, dated 2021).

Molecular target: USP30 (Homo sapiens (Human), UniProt Q70CQ3)
Assay: USP30 biochemical IC50 assay (fluorescence polarisation, FP)
Details: USP30 biochemical FP or FI IC50 assay (table does not say which format per compound); read-out: IC50 range
Description: In Vitro USP30 FP Inhibition Assay
USP30 Biochemical IC50 Assay
Dilution plates were prepared at 21 times the final concentration (2100 μM for a final concentration of 100 μM) in 50% DMSO in a 96-well polypropylene V-bottom plate (Greiner #651201). A typical 8-point dilution series would be 100, 30, 10, 3, 1, 0.3, 0.1, 0.03 μM final. Reactions were performed in duplicate in black 384 well plates (small volume, Greiner 784076) in a final reaction volume of 21 μl. Either 1 μl of 50% DMSO or diluted compound was added to the plate. USP30 was diluted in reaction buffer (40 mM Tris, pH 7.5, 0.005% Tween 20, 0.5 mg/ml BSA, 5 mM beta-mercaptoethanol) to the equivalent of 0.05 μl/well and 10 μl of diluted USP30 was added to the compound. Enzyme and compound were incubated for 30 min at room temp. Reactions were initiated by the addition of 50 nM of TAMRA labelled peptide linked to ubiquitin via an iso-peptide bond as fluorescence polarisation substrate. Reactions were read immediately after addition of substrate and following a 2 hr incubation at room temperature. Readings were performed on a Pherastar Plus (BMG Labtech).

USP30, sequence (Q70CQ3 57-517): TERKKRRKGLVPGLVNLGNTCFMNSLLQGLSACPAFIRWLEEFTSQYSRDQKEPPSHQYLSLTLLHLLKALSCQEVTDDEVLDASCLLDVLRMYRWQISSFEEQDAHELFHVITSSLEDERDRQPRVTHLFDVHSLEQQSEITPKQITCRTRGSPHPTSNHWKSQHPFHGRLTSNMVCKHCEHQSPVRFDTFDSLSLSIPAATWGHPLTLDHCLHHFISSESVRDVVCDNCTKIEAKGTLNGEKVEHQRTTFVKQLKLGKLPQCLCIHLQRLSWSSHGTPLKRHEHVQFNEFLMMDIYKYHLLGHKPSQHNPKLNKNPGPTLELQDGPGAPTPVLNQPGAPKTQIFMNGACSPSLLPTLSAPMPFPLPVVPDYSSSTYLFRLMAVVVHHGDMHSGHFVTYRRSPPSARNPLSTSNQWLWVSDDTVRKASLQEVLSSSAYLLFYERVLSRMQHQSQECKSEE

IC50: 100 to 1000 nM
Substance: rac-(3aR,6aR)-1-(3-phenyl-1H- pyrazole-5- carbonyl)hexahydropyrrolo[3,4- bipyrrole-5(1H)-carbonitrile [Example 52]
